The record followed here is publication PMC6365646, “Oxidative Pathways of Deoxyribose and Deoxyribonate Catabolism” (mSystems, 2019).

The test concerns the target T1, deoxyribose dehydrogenase (iorAB-like dehydrogenase) (Pseudomonas simiae, UniProt A0A1N7UDX6).
T1 construct: gene PS417_10885; each subunit His-tagged (pET32a) in E. coli BL21(DE3), bands at 80 kDa (10885) and 17 kDa (10890); not purified, two clarified lysates mixed; native cytochrome c PS417_10880 not included; with Isoquinoline 1-oxidoreductase subunit alpha-like (deoxyribose dehydrogenase small subunit)
T1 sequence (A0A1N7UDX6 2-739): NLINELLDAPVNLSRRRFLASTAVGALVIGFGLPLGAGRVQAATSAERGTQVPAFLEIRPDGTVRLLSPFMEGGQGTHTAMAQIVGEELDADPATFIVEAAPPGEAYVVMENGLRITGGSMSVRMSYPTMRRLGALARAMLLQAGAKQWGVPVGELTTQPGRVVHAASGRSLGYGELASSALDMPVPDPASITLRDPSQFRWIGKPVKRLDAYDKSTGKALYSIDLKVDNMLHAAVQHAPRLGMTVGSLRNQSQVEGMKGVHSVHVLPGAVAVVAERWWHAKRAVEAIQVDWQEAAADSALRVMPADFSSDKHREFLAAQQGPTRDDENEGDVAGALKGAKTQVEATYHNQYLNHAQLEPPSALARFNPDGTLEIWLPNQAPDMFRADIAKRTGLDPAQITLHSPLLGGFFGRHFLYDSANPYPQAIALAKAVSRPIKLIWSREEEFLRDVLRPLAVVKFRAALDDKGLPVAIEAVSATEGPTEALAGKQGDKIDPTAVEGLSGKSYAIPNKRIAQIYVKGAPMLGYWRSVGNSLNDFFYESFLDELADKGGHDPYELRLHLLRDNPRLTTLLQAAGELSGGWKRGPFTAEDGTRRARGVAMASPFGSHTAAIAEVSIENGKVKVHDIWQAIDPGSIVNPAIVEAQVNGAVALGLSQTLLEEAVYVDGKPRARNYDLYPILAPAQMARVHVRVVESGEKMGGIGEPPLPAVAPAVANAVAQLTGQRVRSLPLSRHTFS
T1 sequence (A0A1N7UJP4 1-151 partner): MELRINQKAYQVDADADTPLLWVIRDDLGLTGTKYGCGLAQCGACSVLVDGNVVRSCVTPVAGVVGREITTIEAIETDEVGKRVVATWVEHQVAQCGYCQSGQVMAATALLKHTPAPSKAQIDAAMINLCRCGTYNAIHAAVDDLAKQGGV
Nature of the test: LC-MS/MS detection of deoxyribonate product, mixed E. coli lysates against empty-vector lysate. The class given is biochemical. The conditions noted are these: 1 mM deoxyribose, 100 uM phenazine methosulfate as electron acceptor, 100 mM NH4HCO3, room temperature, 1 h, with or without lactonase.

On to `O=C(O)C[C@H](O)[C@H](O)CO` [2-deoxy-D-ribonate], for which the “LC-MS/MS detection of deoxyribonate product, mixed E. coli lysates against empty” value (may form through spontaneous or lysate hydrolysis of deoxyribono) was “this product had a fragmentation pattern very similar to that of a 2-deoxy-D-ribonate standard”.

For `OC[C@H]1OC(O)C[C@@H]1O` (stereo partly drawn) [2-deoxy-D-ribose], the “LC-MS/MS detection of deoxyribonate product, mixed E. coli lysates against empty” value is “The iorAB-like dehydrogenase converted deoxyribose to a compound with the same mass-to-charge ratio”.
